Measured values as given in ChEMBL document CHEMBL4270538, “Targeting prohibitin with small molecules to promote melanogenesis and apoptosis in melanoma cells” (Eur J Med Chem, 2018).
Calls of active or inactive are those of the source. No cut-off for these calls is given here.

Assays:
[1] = target: Prohibitin-2 (Homo sapiens) (UniProt Q99623); experiment: Induction of PHB2-mediated melanogenesis in human HBL cells assessed as pigmentation at 10 uM after 10 days relative to control; format: cell-based
Prohibitin-2 (Homo sapiens), sequence (Q99623 whole entry): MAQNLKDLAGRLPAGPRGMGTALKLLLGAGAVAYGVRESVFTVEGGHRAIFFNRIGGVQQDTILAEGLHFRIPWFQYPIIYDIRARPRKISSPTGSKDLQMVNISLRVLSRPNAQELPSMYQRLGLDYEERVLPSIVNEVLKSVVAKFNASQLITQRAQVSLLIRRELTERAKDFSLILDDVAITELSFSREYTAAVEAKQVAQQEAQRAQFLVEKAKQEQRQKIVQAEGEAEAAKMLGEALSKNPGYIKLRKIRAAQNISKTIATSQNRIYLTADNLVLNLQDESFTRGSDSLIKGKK

[2] = target: Prohibitin-2 (Homo sapiens) (UniProt Q99623); experiment: Induction of PHB2-mediated melanogenesis in human HBL cells assessed as pigmentation at 1 uM after 10 days relative to control; format: cell-based
HBL = experiment: Induction of apoptosis in human HBL cells at 1 to 10 uM after 48 hrs by Annexin V-PE/7-AAD staining based flow cytometry; format: functional, cell-based
Homo sapiens [3] = organism: Homo sapiens; experiment: Induction of apoptosis in human MM043 cells at 1 to 10 uM after 48 hrs by Annexin V-PE/7-AAD staining based flow cytometry; format: functional, cell-based
Homo sapiens [4] = organism: Homo sapiens; experiment: Induction of apoptosis in human MM162 cells at 1 to 10 uM after 48 hrs by Annexin V-PE/7-AAD staining based flow cytometry; format: functional, cell-based

fold change (FC) [1]	fold change (FC) [2]	Compound	Activity (HBL)	Activity (Homo sapiens [3])	Activity (Homo sapiens [4])
0.61	0.8	CC[C@@H](CO)Nc1nc(NCc2cccc(F)c2)nc(Oc2c(F)c(F)c(F)c(F)c2F)n1			
0.55	0.86	CCC(Nc1nc(NCCN(C)C)nc(Oc2c(F)c(F)c(F)c(F)c2F)n1)c1cccc(F)c1 (stereo not drawn)			
1	0.91	CC(=O)NCCNc1nc(NCc2cccc(F)c2)nc(Oc2c(F)c(F)c(F)c(F)c2F)n1			
1.97	1.15	CN(C)CCNc1nc(Oc2c(F)c(F)c(F)c(F)c2F)nc(N(C)Cc2cccc(F)c2)n1			
0.71	0.94	C[C@@H](c1ccccc1)N(C)c1nc(NCCN(C)C)nc(Oc2c(F)c(F)c(F)c(F)c2F)n1			
1.37	1.51	FC1(F)N=C(c2ccc(Cl)cc2)SC1(F)c1ccc(Cl)cc1 (stereo not drawn)			
1	0.9	Fc1cccc(CNc2nc(NCCCCc3ccccc3)nc(Oc3c(F)c(F)c(F)c(F)c3F)n2)c1			
0.65	0.78	CN1CCN(c2nc(NCc3cccc(F)c3)nc(Oc3c(F)c(F)c(F)c(F)c3F)n2)CC1			
0.86	1.01	CNc1nc(Oc2c(F)c(F)c(F)c(F)c2F)nc(N(C)[C@@H](C)c2ccccc2)n1			
0.98	0.93	CNc1nc(Oc2c(F)c(F)c(F)c(F)c2F)nc(N2Cc3ccccc3C2)n1			
0.76	0.77	Fc1cccc(CNc2nc(NCc3ccncc3)nc(Oc3c(F)c(F)c(F)c(F)c3F)n2)c1			
0.74	0.95	CCC(Nc1nc(N[C@H](CC)CO)nc(Oc2c(F)c(F)c(F)c(F)c2F)n1)c1cccc(F)c1 (stereo partly drawn)			
0.86	0.8	CNc1nc(Oc2c(F)c(F)c(F)c(F)c2F)nc(N2CCCc3ccccc3C2)n1			
0.76	0.8	COCCNc1nc(NCc2cccc(F)c2)nc(Oc2c(F)c(F)c(F)c(F)c2F)n1			
0.81	0.77	CC[C@H](CO)Nc1nc(Oc2c(F)c(F)c(F)c(F)c2F)nc(N(C)Cc2cccc(F)c2)n1			
0.87	0.84	CNc1nc(Oc2c(F)c(F)c(F)c(F)c2F)nc(N2CCc3ccccc3C2)n1			
0.95	1.07	Fc1cccc(CNc2nc(NCC3CCCO3)nc(Oc3c(F)c(F)c(F)c(F)c3F)n2)c1 (stereo not drawn)			
1.39	1.06	CCC(CO)Nc1nc(NCc2cccc(F)c2)nc(Oc2c(F)c(F)c(F)c(F)c2F)n1 (stereo not drawn)			
1.09	0.97	Fc1cccc(CNc2nc(NCCNc3ccccn3)nc(Oc3c(F)c(F)c(F)c(F)c3F)n2)c1			
0.84	0.89	OCC1CCN(c2nc(NCc3cccc(F)c3)nc(Oc3c(F)c(F)c(F)c(F)c3F)n2)CC1			
0.84	0.89	CNc1nc(NCc2cccc(F)c2)nc(Oc2c(F)c(F)c(F)c(F)c2F)n1			
1.07	1.07	Fc1cccc(CNc2nc(NCCCc3ccccc3)nc(Oc3c(F)c(F)c(F)c(F)c3F)n2)c1			
1.08	0.99	Fc1cccc(CNc2nc(Oc3c(F)c(F)c(F)c(F)c3F)nc(N3CCCC3)n2)c1			
0.83	0.94	CC[C@H](CO)Nc1nc(N[C@H](C)c2ccccc2)nc(Oc2c(F)c(F)c(F)c(F)c2F)n1			
1.53	1.25	C[C@H](c1ccccc1)N(C)c1nc(NCCN(C)C)nc(Oc2c(F)c(F)c(F)c(F)c2F)n1			

fold change (FC) [1]	fold change (FC) [2]	Compound	Activity (HBL)	Activity (Homo sapiens [3])	Activity (Homo sapiens [4])
1.04	0.99	O=C1CCCN1CCCNc1nc(NCc2cccc(F)c2)nc(Oc2c(F)c(F)c(F)c(F)c2F)n1			
0.43	0.77	CC(Nc1nc(NCCN(C)C)nc(Oc2c(F)c(F)c(F)c(F)c2F)n1)c1cccc(F)c1 (stereo not drawn)			
0.99	0.98	CN(C)CCNc1nc(Oc2c(F)c(F)c(F)c(F)c2F)nc(N(C)Cc2ccccc2)n1			
0.68	0.78	CC[C@H](CO)Nc1nc(NC(C)c2cccc(F)c2)nc(Oc2c(F)c(F)c(F)c(F)c2F)n1 (stereo partly drawn)			
1.51	0.83	CN(C)C1CCN(c2nc(Oc3c(F)c(F)c(F)c(F)c3F)nc(N3CCCc4ccccc4C3)n2)CC1	Active	Active	Active
0.94	0.92	Fc1cccc(CNc2nc(NCc3cccnc3)nc(Oc3c(F)c(F)c(F)c(F)c3F)n2)c1			
1.1	0.89	Fc1cccc(CNc2nc(NCc3ccccc3)nc(Oc3c(F)c(F)c(F)c(F)c3F)n2)c1			
0.59	0.98	CN(C)CCNc1nc(NCc2cccc(F)c2)nc(Oc2c(F)c(F)c(F)c(F)c2F)n1			
1.11	0.9	Fc1cccc(CNc2nc(NCCc3ccccc3)nc(Oc3c(F)c(F)c(F)c(F)c3F)n2)c1			
0.84	1.01	CNc1nc(NC(C)c2cccc(F)c2)nc(Oc2c(F)c(F)c(F)c(F)c2F)n1 (stereo not drawn)			
1.05	1.04	CN(C)c1nc(NCc2cccc(F)c2)nc(Oc2c(F)c(F)c(F)c(F)c2F)n1			
0.91	0.92	Nc1nc(NCc2cccc(F)c2)nc(Oc2c(F)c(F)c(F)c(F)c2F)n1			
0.61	0.78	C[C@@H](Nc1nc(NCCN(C)C)nc(Oc2c(F)c(F)c(F)c(F)c2F)n1)c1ccccc1			
0.89	0.7	CC(C)CCNc1nc(NCc2cccc(F)c2)nc(Oc2c(F)c(F)c(F)c(F)c2F)n1			
1.01	1.02	Fc1cccc(CNc2nc(NCc3ccccn3)nc(Oc3c(F)c(F)c(F)c(F)c3F)n2)c1			
0.89	1.16	CNc1nc(N[C@H](C)c2ccccc2)nc(Oc2c(F)c(F)c(F)c(F)c2F)n1			
0.94	0.88	CNc1nc(Oc2c(F)c(F)c(F)c(F)c2F)nc(N(C)[C@H](C)c2ccccc2)n1			
0.93	0.85	Fc1cccc(CNc2nc(Oc3c(F)c(F)c(F)c(F)c3F)nc(N3CCOCC3)n2)c1			
1.43	1.11	CCN(Cc1ccccc1)c1nc(NCCN(C)C)nc(Oc2c(F)c(F)c(F)c(F)c2F)n1			
0.78	0.84	CNc1nc(Oc2c(F)c(F)c(F)c(F)c2F)nc(N(C)Cc2cccc(F)c2)n1			
0.69	0.9	CNc1nc(NCc2ccccc2)nc(Oc2c(F)c(F)c(F)c(F)c2F)n1			
1.25	1.09	Fc1cccc(CNc2nc(NCCc3cc4ccccc4[nH]3)nc(Oc3c(F)c(F)c(F)c(F)c3F)n2)c1			
1.57	0.96	CN(C)CCCNc1nc(Oc2c(F)c(F)c(F)c(F)c2F)nc(N2CCCc3ccccc3C2)n1			
0.89	0.96	CC[C@H](CO)Nc1nc(Oc2c(F)c(F)c(F)c(F)c2F)nc(N(C)[C@@H](C)c2ccccc2)n1			
0.74	0.85	CC[C@H](CO)Nc1nc(Oc2c(F)c(F)c(F)c(F)c2F)nc(N2CCCc3ccccc3C2)n1			
